Assays:
[1] = test system: HEI-OC1 cells; assay: release of mitochondrial Cytc in HEI-OC1 cells with CisPt (flow cytometry); assay type: cell-based; conditions: cellular model of CisPt-induced apoptosis
Experimental: Flow cytometry was also used to characterize the effect of LPT99 in the release of mitochondrial Cytc in HEI-OC1 cells in vitro with CisPt prevention.
The effect of LPT99 on proliferation of non-apoptotic cells was studied. A549 cells were cultured in the presence of LPT99 for up to 6 days; the cell number was monitored by flow cytometry, and doubling time was calculated.

[2] = test system: C1-GABA-gated channel; assay: off-target selectivity panel; assay type: binding
Experimental: (§1) To identify off-target activities of LPT99, its selectivity against a panel of receptors (44 G-protein-coupled receptors [GPCR] and 4 non-GPCR), 4 ion channels, and 3 transporters were analyzed. The cell line, HEI-OC1 (house ear institute organ of Corti 1), which expresses several characteristic markers of the organ of Corti sensory cells (Kalinec, et al., Audiol. Neurootol. 2003, 8(4), 177-89), was used to evaluate the efficacy of LPT99 in preventing apoptosis due to […]. Cells were pre-incubated with LPT99, followed by […] for 24 hours.
(§2) For 14 of the tested targets-adenosine receptor 3 (A3); cholecystokinin: cholecystokinin receptor 1 (CCK1); melatonin receptor (MT1); neurokinin (NK2 and NK3); opioid (kOP and mOP); serotonin receptors (5HT-1A, 5HT-2A, 5HT-2B and 5HT-7); and vasopressin (ViA; Na+channel site 2 and C1-GABA-gated channel)—the LPT99 affinity was >50%. At 1 μM, the inhibition of 13 of these targets was <50%, indicating a very low affinity with LPT99.

[3] = test system: Na+channel site 2; assay: off-target selectivity panel; assay type: binding
Experimental: as §1, §2

[4] = target: adenosine receptor 3 (A3) (Homo sapiens, UniProt P0DMS8); assay: off-target selectivity panel; assay type: binding
Experimental: as §1, §2

[5] = target: cholecystokinin receptor 1 (CCK1) (Homo sapiens, UniProt P32238); assay: off-target selectivity panel; assay type: binding
Experimental: as §1, §2

[6] = target: melatonin receptor (MT1) (Homo sapiens, UniProt P48039); assay: off-target selectivity panel; assay type: binding
Experimental: as §1, §2

[7] = target: neurokinin (NK2) (Homo sapiens, UniProt P21452); assay: off-target selectivity panel; assay type: binding
Experimental: as §1, §2

[8] = target: neurokinin (NK3) (Homo sapiens, UniProt P29371); assay: off-target selectivity panel; assay type: binding
Experimental: as §1, §2

[9] = target: opioid (kOP) (Homo sapiens, UniProt P41145); assay: off-target selectivity panel; assay type: binding
Experimental: as §1, §2

[10] = target: opioid (mOP) (Homo sapiens, UniProt P35372); assay: off-target selectivity panel; assay type: binding
Experimental: as §1, §2

[11] = test system: panel of receptors (44 GPCR and 4 non-GPCR), 4 ion channels, and 3 transporters; assay: off-target selectivity panel; assay type: binding; conditions: 10 μM
Experimental: as §1, §2

[12] = target: serotonin receptor 5HT-1A (Homo sapiens, UniProt P08908); assay: off-target selectivity panel; assay type: binding
Experimental: as §1, §2

[13] = target: serotonin receptor 5HT-2A (Homo sapiens, UniProt P28223); assay: off-target selectivity panel; assay type: binding
Experimental: as §1, §2

[14] = target: serotonin receptor 5HT-2B (Homo sapiens, UniProt P41595); assay: off-target selectivity panel; assay type: binding
Experimental: as §1, §2

[15] = target: serotonin receptor 5HT-7 (Homo sapiens, UniProt P34969); assay: off-target selectivity panel; assay type: binding
Experimental: as §1, §2

[16] = target: vasopressin (ViA) (Homo sapiens, UniProt P37288); assay: off-target selectivity panel; assay type: binding
Experimental: as §1, §2

[17] = test system: noise-induced ABR threshold shift; assay: noise trauma ABR threshold study (FIG. 6); assay type: in vivo; conditions: TRAUMA+LPT99 group, 10 and 21 days
[18] = non-GLP maximum tolerated dose (MTD) toxicity study, IP; conditions: rat, in vivo, Sprague-Dawley rats
Experimental: A functional observation battery was conducted with LPT99 administered via IP (intraperitoneal) injection in Sprague-Dawley rats. The study was preceded by a non-GLP maximum tolerated dose (MTD) toxicity study, via the same administration and test system, which determined the MTD of LTP99 to be 1000 mg/kg. LPT99 was suspended in vehicle [0.5% w/v methylcellulose and 0.1% v/v TWEEN®80 in Milli-Q water] and administered intraperitoneally to Sprague-Dawley rats as a single dose at the doses of 100 (low—G2/G2TK), 300 (mid—G3/G3TK), and 750 (high—G4/G4TK) mg/kg body weight. The rats in vehicle control groups (G1/G1TK) received the vehicle alone. The dose volume administered was at an equivolume of 10 mL/kg body weight for all groups.
A GLP acute systemic toxicity study was conducted with LPT99 administered via IP injection in Sprague-Dawley rats. The acute systemic toxicity study was preceded by a non-GLP maximum tolerated dose (MTD) toxicity study, via the same administration and test system, which determined the MTD of LTP99 to be 1000 mg/kg.

[19] = test system: caspase 3; conditions: cellular model of CisPt-induced apoptosis; IEB Symposium abstracts 2016; cited from earlier work

melatonin receptor (MT1), sequence (P48039 whole entry): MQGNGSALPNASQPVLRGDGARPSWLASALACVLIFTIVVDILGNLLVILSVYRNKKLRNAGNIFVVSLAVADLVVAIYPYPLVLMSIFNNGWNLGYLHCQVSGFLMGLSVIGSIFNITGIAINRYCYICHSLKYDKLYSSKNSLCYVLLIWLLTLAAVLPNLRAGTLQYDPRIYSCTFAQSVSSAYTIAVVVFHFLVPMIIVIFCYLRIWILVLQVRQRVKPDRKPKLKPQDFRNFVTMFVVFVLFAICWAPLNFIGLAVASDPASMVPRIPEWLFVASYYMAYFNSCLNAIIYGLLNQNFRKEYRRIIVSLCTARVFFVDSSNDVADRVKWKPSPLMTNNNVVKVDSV
cholecystokinin receptor 1 (CCK1), sequence (P32238 whole entry): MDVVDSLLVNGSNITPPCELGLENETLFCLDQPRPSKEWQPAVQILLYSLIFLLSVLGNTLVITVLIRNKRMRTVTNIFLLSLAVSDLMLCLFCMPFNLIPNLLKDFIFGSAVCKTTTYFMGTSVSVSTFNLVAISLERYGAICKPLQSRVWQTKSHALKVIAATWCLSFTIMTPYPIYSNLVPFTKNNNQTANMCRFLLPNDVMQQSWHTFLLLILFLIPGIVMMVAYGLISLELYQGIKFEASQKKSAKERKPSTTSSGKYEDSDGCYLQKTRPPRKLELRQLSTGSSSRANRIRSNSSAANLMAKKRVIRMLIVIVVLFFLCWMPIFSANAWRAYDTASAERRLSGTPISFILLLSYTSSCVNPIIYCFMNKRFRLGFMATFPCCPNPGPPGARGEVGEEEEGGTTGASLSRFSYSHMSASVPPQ
opioid (kOP), sequence (P41145 whole entry): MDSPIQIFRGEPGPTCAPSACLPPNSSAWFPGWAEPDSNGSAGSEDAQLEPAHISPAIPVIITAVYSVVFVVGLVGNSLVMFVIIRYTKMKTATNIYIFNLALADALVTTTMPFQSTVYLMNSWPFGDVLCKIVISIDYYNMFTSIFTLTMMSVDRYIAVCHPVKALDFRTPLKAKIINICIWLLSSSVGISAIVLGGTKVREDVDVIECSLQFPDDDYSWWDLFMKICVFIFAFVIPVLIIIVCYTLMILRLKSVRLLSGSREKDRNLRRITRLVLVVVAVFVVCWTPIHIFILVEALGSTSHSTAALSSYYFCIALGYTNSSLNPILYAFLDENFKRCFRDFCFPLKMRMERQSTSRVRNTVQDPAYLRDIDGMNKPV
neurokinin (NK2), sequence (P21452 whole entry): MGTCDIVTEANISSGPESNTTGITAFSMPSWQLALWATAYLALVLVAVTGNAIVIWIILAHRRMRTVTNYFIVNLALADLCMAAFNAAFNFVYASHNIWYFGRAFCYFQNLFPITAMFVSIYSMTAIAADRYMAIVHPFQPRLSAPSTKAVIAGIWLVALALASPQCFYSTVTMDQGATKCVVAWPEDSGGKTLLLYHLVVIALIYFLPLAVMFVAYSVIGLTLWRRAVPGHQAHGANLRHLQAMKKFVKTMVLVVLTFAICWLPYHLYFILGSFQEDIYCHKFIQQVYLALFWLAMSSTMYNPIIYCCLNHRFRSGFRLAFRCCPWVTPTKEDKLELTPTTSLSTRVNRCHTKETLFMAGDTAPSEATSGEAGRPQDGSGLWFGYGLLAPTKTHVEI
serotonin receptor 5HT-2B, sequence (P41595 whole entry): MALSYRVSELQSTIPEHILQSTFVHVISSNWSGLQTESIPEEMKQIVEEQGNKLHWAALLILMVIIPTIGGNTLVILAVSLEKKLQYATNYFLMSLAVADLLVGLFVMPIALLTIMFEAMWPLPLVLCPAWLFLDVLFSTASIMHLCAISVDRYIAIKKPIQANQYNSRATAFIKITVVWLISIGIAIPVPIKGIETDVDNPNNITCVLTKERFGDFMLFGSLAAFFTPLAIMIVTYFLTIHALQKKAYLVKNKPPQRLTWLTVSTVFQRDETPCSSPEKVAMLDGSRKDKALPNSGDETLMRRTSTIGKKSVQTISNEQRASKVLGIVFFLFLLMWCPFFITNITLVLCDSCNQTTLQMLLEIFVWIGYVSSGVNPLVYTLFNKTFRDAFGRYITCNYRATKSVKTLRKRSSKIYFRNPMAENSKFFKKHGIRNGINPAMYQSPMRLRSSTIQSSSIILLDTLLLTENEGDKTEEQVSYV
serotonin receptor 5HT-7, sequence (P34969 whole entry): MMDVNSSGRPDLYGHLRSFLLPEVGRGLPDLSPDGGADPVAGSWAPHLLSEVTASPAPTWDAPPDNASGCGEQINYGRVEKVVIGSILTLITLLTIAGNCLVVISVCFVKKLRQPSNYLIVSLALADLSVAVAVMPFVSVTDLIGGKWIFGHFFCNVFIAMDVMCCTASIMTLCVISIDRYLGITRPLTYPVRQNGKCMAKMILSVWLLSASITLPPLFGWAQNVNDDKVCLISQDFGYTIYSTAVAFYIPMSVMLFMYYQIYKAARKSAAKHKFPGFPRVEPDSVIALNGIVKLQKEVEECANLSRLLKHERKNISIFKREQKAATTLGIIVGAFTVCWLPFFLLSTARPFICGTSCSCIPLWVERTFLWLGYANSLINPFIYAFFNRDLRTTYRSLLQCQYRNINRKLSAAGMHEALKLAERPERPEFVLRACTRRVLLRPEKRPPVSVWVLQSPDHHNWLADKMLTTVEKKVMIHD
opioid (mOP), sequence (P35372 whole entry): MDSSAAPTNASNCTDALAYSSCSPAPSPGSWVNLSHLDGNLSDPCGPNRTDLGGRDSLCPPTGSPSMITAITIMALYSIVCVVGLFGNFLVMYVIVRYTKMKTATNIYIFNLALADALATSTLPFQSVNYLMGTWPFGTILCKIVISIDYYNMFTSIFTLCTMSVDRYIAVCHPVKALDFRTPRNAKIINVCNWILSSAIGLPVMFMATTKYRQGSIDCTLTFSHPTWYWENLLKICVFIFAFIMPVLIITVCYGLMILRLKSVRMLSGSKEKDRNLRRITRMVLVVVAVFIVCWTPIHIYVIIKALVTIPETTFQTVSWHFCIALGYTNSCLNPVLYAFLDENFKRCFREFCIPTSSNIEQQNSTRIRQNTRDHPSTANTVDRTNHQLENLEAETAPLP
neurokinin (NK3), sequence (P29371 whole entry): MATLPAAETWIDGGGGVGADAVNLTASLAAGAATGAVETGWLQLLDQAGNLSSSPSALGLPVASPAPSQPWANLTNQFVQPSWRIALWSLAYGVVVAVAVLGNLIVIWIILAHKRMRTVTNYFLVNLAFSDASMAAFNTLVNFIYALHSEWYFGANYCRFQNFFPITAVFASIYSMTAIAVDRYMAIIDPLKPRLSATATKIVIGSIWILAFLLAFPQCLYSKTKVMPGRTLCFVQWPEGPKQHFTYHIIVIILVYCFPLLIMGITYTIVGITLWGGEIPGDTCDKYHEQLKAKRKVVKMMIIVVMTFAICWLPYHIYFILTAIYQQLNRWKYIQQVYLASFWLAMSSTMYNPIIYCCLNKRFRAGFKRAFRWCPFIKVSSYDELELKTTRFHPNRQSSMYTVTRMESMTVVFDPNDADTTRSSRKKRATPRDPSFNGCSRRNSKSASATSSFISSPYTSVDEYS
serotonin receptor 5HT-2A, sequence (P28223 whole entry): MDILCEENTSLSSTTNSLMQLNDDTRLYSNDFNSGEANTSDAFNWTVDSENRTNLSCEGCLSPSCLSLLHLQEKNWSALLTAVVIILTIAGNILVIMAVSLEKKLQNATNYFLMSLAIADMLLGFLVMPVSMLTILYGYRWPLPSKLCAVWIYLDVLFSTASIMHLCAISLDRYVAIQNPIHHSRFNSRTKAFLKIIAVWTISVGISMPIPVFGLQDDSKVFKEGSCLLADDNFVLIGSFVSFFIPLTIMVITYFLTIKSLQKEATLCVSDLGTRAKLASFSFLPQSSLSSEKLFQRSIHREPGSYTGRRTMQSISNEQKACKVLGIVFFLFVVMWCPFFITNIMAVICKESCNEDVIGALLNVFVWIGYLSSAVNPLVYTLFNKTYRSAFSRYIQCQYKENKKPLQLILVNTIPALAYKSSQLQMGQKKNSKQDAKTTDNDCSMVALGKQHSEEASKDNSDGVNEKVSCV
vasopressin (ViA), sequence (P37288 whole entry): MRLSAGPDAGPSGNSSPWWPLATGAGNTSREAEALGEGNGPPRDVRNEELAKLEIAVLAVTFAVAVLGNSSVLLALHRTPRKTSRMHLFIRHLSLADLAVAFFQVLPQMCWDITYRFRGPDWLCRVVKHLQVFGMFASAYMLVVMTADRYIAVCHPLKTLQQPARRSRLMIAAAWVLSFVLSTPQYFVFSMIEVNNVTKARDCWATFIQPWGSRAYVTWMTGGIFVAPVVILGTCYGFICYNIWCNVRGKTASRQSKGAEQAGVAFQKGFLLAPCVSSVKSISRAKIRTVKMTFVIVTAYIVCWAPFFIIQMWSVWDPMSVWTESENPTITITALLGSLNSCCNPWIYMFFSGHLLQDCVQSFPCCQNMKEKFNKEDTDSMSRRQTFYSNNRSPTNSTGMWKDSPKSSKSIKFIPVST
adenosine receptor 3 (A3), sequence (P0DMS8 whole entry): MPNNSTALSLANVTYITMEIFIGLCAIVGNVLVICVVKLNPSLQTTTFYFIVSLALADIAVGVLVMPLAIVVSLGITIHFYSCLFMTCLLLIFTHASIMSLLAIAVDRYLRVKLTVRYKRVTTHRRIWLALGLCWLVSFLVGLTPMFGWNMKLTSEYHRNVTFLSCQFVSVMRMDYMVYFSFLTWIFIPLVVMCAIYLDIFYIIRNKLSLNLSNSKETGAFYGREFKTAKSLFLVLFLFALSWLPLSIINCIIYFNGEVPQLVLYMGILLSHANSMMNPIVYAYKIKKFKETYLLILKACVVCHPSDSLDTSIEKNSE

In the case of `COc1ccc2[nH]cc(CCNC(=O)CC3C(=O)N(CCc4ccc(Cl)cc4Cl)CC(=O)N3CCc3cccs3)c2c1` (stereo not shown) [LPT99, 2-(4-(2,4-dichlorophenethyl)-3,6-dioxo-1-(2-(thiophen-2-yl)ethyl)piperazin-2-yl)-N-(2-(5-methoxy-1H-indol-3-yl)ethyl)acetamide], the “release of Cytc from mitochondria” value [1] is reported as “decreased release of Cytc from mitochondria”, the “inhibition C1-GABA-gated channel” value ([2]; 1 μM) is reported as < 50% and the “affinity (inhibition) C1-GABA-gated channel” value ([2]; 10 μM) is reported as > 50%. The “inhibition Na+channel site 2” value ([3]; 1 μM) was < 50%, the “affinity (inhibition) Na+channel site 2” value ([3]; 10 μM) was > 50% and the inhibition at 1 µM ([4]; 1 μM) was < 50%. The inhibition at 10 µM ([4]; 10 μM, read-out: affinity (inhibition) A3) was > 50%, the inhibition at 1 µM ([5]; 1 μM) was < 50% and the inhibition at 10 µM ([5]; 10 μM, read-out: affinity (inhibition) CCK1) was > 50%. For the same compound, the inhibition at 0.1 µM ([6]; 0.1 μM) was 6%, the inhibition at 1 µM ([6]; 1 μM) was 53% and the inhibition at 10 µM ([6]; 10 μM, read-out: affinity (inhibition) MT1) was > 50%. The inhibition at 1 µM ([7]; 1 μM) was < 50%, the inhibition at 10 µM ([7]; 10 μM, read-out: affinity (inhibition) NK2) was > 50% and the inhibition at 1 µM ([8]; 1 μM) was < 50%. The inhibition at 10 µM ([8]; 10 μM, read-out: affinity (inhibition) NK3) was > 50%, the inhibition at 1 µM ([9]; 1 μM) was < 50% and the inhibition at 10 µM ([9]; 10 μM, read-out: affinity (inhibition) kOP) was > 50%. The inhibition at 1 µM ([10]; 1 μM) was < 50%, the inhibition at 10 µM ([10]; 10 μM, read-out: affinity (inhibition) mOP) was > 50% and the “in vitro inhibition, 41 of the tested targets” value [11] was < 50%. The inhibition at 1 µM ([12]; 1 μM) was < 50%, the inhibition at 10 µM ([12]; 10 μM, read-out: affinity (inhibition) 5HT-1A) was > 50% and the inhibition at 1 µM ([13]; 1 μM) was < 50%. The inhibition at 10 µM ([13]; 10 μM, read-out: affinity (inhibition) 5HT-2A) was > 50%, the inhibition at 1 µM ([14]; 1 μM) was < 50% and the inhibition at 10 µM ([14]; 10 μM, read-out: affinity (inhibition) 5HT-2B) was > 50%. The inhibition at 1 µM ([15]; 1 μM) was < 50%, the inhibition at 10 µM ([15]; 10 μM, read-out: affinity (inhibition) 5HT-7) was > 50% and the inhibition at 1 µM ([16]; 1 μM) was < 50%. For the same compound, the inhibition at 10 µM ([16]; 10 μM, read-out: affinity (inhibition) ViA) was > 50%, the “noise-induced ABR Threshold shift” value [17] was “back at basal levels” and the MTD [18] was 1000 mg/kg. The caspase-3 activation [19] was “reduced caspase-3 activation”.

— patent US10561736B1, “Apoptosis inhibitor formulations for prevention of hearing loss” (Spiral Therapeutics, Inc., priority 2019, dated 2020)
